Reference: patent US11311520B2, “Substituted dihydroimidazopyridinediones as MKNK1 and MKNK2 inhibitors” (Bayer Pharma Aktiengesellschaft, priority 2017, dated 2022)

Target: human full-length MKNK1 (Homo sapiens (Human), UniProt Q9BUB5, T344D)
Experiment: MKNK1 kinase high ATP assay (TR-FRET)
Assay type: biochemical
Conditions: 2 mM ATP, 15 min preincubation with enzyme, GST-MKNK1 (T344D)
Procedure, shortened: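 GST-tagged full-length human MKNK1 (1-424, T344D, baculovirus-expressed) preincubated 15 min at 22 °C with compound, then reacted 30 min at 22 °C with 2 mM ATP and 0.06 μM biotinylated peptide (final) in HEPES pH 7.5. Phospho-substrate by TR-FRET (665/622 nm ratio), normalised to no-inhibitor and no-enzyme controls.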

Chain of human full-length MKNK1 (Q9BUB5 other isoform, or with tags, fused parts or gaps T344D): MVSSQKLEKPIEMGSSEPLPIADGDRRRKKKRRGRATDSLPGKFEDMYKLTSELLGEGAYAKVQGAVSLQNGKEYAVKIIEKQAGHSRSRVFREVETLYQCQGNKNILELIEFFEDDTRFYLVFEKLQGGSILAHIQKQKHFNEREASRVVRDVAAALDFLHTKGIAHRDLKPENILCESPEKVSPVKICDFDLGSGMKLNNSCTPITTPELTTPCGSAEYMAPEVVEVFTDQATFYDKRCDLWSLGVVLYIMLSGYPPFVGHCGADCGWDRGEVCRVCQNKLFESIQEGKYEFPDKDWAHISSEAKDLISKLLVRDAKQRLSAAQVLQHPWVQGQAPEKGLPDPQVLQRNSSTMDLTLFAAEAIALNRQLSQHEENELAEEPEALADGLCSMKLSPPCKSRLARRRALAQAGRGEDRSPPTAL

Cc1cc(Nc2ncnc3ccc(Cl)cc23)c(=O)n2c1C(=O)NC21CSC1 [Example 175, 6-[(6-chloroquinazolin-4-yl)amino]-8-methyl-2H-spiro[imidazo[1,5-a]pyridine-3,3′-thietane]-1,5-dione]
IC50: 14.4 nM

Cc1cc(Nc2ncnc3ccc(F)cc23)c(=O)n2c1C(=O)NC21CSC1 [Example 176, 6-[(6-fluoroquinazolin-4-yl)amino]-8-methyl-2H-spiro[imidazo[1,5-a]pyridine-3,3′-thietane]-1,5-dione]
IC50: 19 nM

Cc1cc(Nc2ncnc3sccc23)c(=O)n2c1C(=O)NC21CSC1 [Example 177, 8-methyl-6-[(thieno[2,3-d]pyrimidin-4-yl)amino]-2H-spiro[imidazo[1,5-a]pyridine-3,3′-thietane]-1,5-dione]
IC50: 4.3 nM

Cc1cc(Nc2ncnc3[nH]ccc23)c(=O)n2c1C(=O)NC21CSC1 [Example 178, 8-methyl-6-[(7H-pyrrolo[2,3-d]pyrimidin-4-yl)amino]-2H-spiro[imidazo[1,5-a]pyridine-3,3′-thietane]-1,5-dione]
IC50: 1.1 nM

Cc1cc(Nc2ncnc3cccc(C)c23)c(=O)n2c1C(=O)NC21CS(=O)(=O)C1 [Example 179, 8-methyl-6-[(5-methylquinazolin-4-yl)amino]-2H-spiro[imidazo[1,5-a]pyridine-3,3′-thietane]-1,5-dione 1′,1′-dioxide]
IC50: 124 nM

Cc1cc(Nc2ncnc3ccc(Cl)cc23)c(=O)n2c1C(=O)NC21CS(=O)(=O)C1 [Example 180, 6-[(6-chloroquinazolin-4-yl)amino]-8-methyl-2H-spiro[imidazo[1,5-a]pyridine-3,3′-thietane]-1,5-dione 1′,1′-dioxide]
IC50: 104 nM

Cc1cc(Nc2ncnc3cc(Cl)ccc23)c(=O)n2c1C(=O)NC21CS(=O)(=O)C1 [Example 181, 6-[(7-chloroquinazolin-4-yl)amino]-8-methyl-2H-spiro[imidazo[1,5-a]pyridine-3,3′-thietane]-1,5-dione 1′,1′-dioxide]
IC50: 104 nM

Cc1cc(Nc2ncnc3ccccc23)c(=O)n2c1C(=O)NC21CS(=O)(=O)C1 [Example 182, 8-methyl-6-(quinazolin-4-ylamino)-2H-spiro[imidazo[1,5-a]pyridine-3,3′-thietane]-1,5-dione 1′,1′-dioxide]
IC50: 261 nM

Cc1cc(Nc2ncnc3cccc(C)c23)c(=O)n2c1C(=O)NC21CCCC1 [Example 183, 8′-methyl-6′-[(5-methylquinazolin-4-yl)amino]-2′H-spiro[cyclopentane-1,3′-imidazo[1,5-a]pyridine]-1′,5′-dione]
IC50: 13 nM

Cc1cc(Nc2ncnc3ccc(C(F)(F)F)cc23)c(=O)n2c1C(=O)NC21CCCC1 [Example 184, 8′-methyl-6′-{[6-(trifluoromethyl)quinazolin-4-yl]amino}-2′H-spiro[cyclopentane-1,3′-imidazo[1,5-a]pyridine]-1′,5′-dione]
IC50: 34 nM

Cc1cc(Nc2ncnc3ccc(F)cc23)c(=O)n2c1C(=O)NC21CCCC1 [Example 185, 6′-[(6-fluoroquinazolin-4-yl)amino]-8′-methyl-2′H-spiro[cyclopentane-1,3′-imidazo[1,5-a]pyridine]-1′,5′-dione]
IC50: 7.9 nM

Cc1cc(Nc2ncnc3cc(Cl)ccc23)c(=O)n2c1C(=O)NC21CCCC1 [Example 186, 6′-[(7-chloroquinazolin-4-yl)amino]-8′-methyl-2′H-spiro[cyclopentane-1,3′-imidazo[1,5-a]pyridine]-1′,5′-dione]
IC50: 5.5 nM

Cc1cc(Nc2ncnc3ccccc23)c(=O)n2c1C(=O)NC21CCCC1 [Example 187, 8′-methyl-6′-[(quinazolin-4-yl)amino]-2′H-spiro[cyclopentane-1,3′-imidazo[1,5-a]pyridine]-1′,5′-dione]
IC50: 7.3 nM

Cc1cc(Nc2ncnc3cccc(C)c23)c(=O)n2c1C(=O)N[C@]21CC[C@@](O)(C(F)(F)F)CC1 [Example 188, (cis)-4-hydroxy-8′-methyl-6′-[(5-methylquinazolin-4-yl)amino]-4-(trifluoromethyl)-2′H-spiro[cyclohexane-1,3′-imidazo[1,5-a]pyridine]-1′,5′-dione]
IC50: 47 nM

Cc1cc(Nc2ncnc3ccc(F)cc23)c(=O)n2c1C(=O)N[C@]21CC[C@@](O)(C(F)(F)F)CC1 [Example 189, (cis)-6′-[(6-fluoroquinazolin-4-yl)amino]-4-hydroxy-8′-methyl-4-(trifluoromethyl)-2′H-spiro[cyclohexane-1,3′-imidazo[1,5-a]pyridine]-1′,5′-dione]
IC50: 274 nM

Cc1cc(Nc2ncnc(N)n2)c(=O)n2c1C(=O)N[C@]21CC[C@@](O)(C(F)(F)F)CC1 [Example 190, (cis)-6′-[(4-amino-1,3,5-triazin-2-yl)amino]-4-hydroxy-8′-methyl-4-(trifluoromethyl)-2′H-spiro[cyclohexane-1,3′-imidazo[1,5-a]pyridine]-1′,5′-dione]
IC50: 31.4 nM

Cc1cc(Nc2ncnc3cccc(C)c23)c(=O)n2c1C(=O)N[C@]21CC[C@@](O)(C(F)(F)C(F)(F)F)CC1 [Example 191, (cis)-4-hydroxy-8′-methyl-6′-[(5-methylquinazolin-4-yl)amino]-4-(pentafluoroethyl)-2′H-spiro[cyclohexane-1,3′-imidazo[1,5-a]pyridine]-1′,5′-dione]
IC50: 67.8 nM

Cc1cc(Nc2ncnc3ccc(F)cc23)c(=O)n2c1C(=O)N[C@]21CC[C@@](O)(C(F)(F)C(F)(F)F)CC1 [Example 192, (cis)-6′-[(6-fluoroquinazolin-4-yl)amino]-4-hydroxy-8′-methyl-4-(pentafluoroethyl)-2′H-spiro[cyclohexane-1,3′-imidazo[1,5-a]pyridine]-1′,5′-dione]
IC50: 281 nM

Cc1cc(Nc2ncnc3sccc23)c(=O)n2c1C(=O)N[C@]21CC[C@@](O)(C(F)(F)C(F)(F)F)CC1 [Example 193, (cis)-4-hydroxy-8′-methyl-4-(pentafluoroethyl)-6′-[(thieno[2,3-d]pyrimidin-4-yl)amino]-2′H-spiro[cyclohexane-1,3′-imidazo[1,5-a]pyridine]-1′,5′-dione]
IC50: 29.8 nM

Cc1cc(Nc2ncnc3[nH]ccc23)c(=O)n2c1C(=O)N[C@]21CC[C@@](O)(C(F)(F)C(F)(F)F)CC1 [Example 194, (cis)-4-hydroxy-8′-methyl-4-(pentafluoroethyl)-6′-[(7H-pyrrolo[2,3-d]pyrimidin-4-yl)amino]-2′H-spiro[cyclohexane-1,3′-imidazo[1,5-a]pyridine]-1′,5′-dione]
IC50: 12.2 nM

Cc1cc(Nc2ncnc3ccc(Cl)cc23)c(=O)n2c1C(=O)N[C@]21CC[C@@](O)(C(F)(F)C(F)(F)F)CC1 [Example 195, (cis)-6′-[(6-chloroquinazolin-4-yl)amino]-4-hydroxy-8′-methyl-4-(pentafluoroethyl)-2′H-spiro[cyclohexane-1,3′-imidazo[1,5-a]pyridine]-1′,5′-dione]
IC50: 342 nM

Cc1cc(Nc2ncnc3[nH]ccc23)c(=O)n2c1C(=O)NC21CCSCC1 [Example 196, 8-methyl-6-(7H-pyrrolo[2,3-d]pyrimidin-4-ylamino)-2′,3′,5′,6′-tetrahydro-2H-spiro[imidazo[1,5-a]pyridine-3,4′-thiopyran]-1,5-dione]
IC50: 0.5 nM

Cc1cc(Nc2ncnc3ccc(Cl)cc23)c(=O)n2c1C(=O)NC21CCSCC1 [Example 197, 6-[(6-chloroquinazolin-4-yl)amino]-8-methyl-2′,3′,5′,6′-tetrahydro-2H-spiro[imidazo[1,5-a]pyridine-3,4′-thiopyran]-1,5-dione]
IC50: 14.9 nM

Cc1cc(Nc2ncnc3[nH]ccc23)c(=O)n2c1C(=O)NC21CCS(=O)(=O)CC1 [Example 198, 8-methyl-6-(7H-pyrrolo[2,3-d]pyrimidin-4-ylamino)-2′,3′,5′,6′-tetrahydro-2H-spiro[imidazo[1,5-a]pyridine-3,4′-thiopyran]-1,5-dione 1′,1′-dioxide]
IC50: 1.1 nM

Cc1cc(Nc2ncnc3ccc(Cl)cc23)c(=O)n2c1C(=O)NC21CCS(=O)(=O)CC1 [Example 199, 6-[(6-chloroquinazolin-4-yl)amino]-8-methyl-2′,3′,5′,6′-tetrahydro-2H-spiro[imidazo[1,5-a]pyridine-3,4′-thiopyran]-1,5-dione 1′,1′-dioxide]
IC50: 56.3 nM
